The results in this text go back to patent publication US9770397B2, “Oxidative dyeing composition” (KAO GERMANY GMBH, priority 2012, dated 2017).

For the data set, the system named is scalp. The data set is described as follows: monadic use test for scalp compatibility and mildness. Set-up: species or system consumers. The settings on record: in vivo. As for the experimental part:
The above compositions were tested in a monadic use test for scalp compatibility and mildness. Both compositions were used to dye hair of 30 consumers each having shoulder length hair. The composition was mixed with a composition comprising 6% hydrogen peroxide at a weight ratio of 1 to 1 and applied onto hair and processed for 30 min at a temperature of 40° C. and rinsed off. It was observed that both composition colour hair in the same way to the same colour direction. The following observations were made on scalp irritation.

In the case of `O=C(CCc1ccc(O)cc1)Nc1ccccc1C(=O)O` [hydroxyphenyl propamidobenzoic acid, Hydroxyphenyl propamidobenzoic acid], the “mildness and scalp compatibility of hair dyeing composition (conclusion in words)” value is “improved mildness of hair dyeing composition and improved scalp compatibility”.
